pIC50: −log10 of the molar value. *1 amine or outer side, *2 acyl side, *3 side chain or, on linkers, in order; H or OH if unused. Where a SMILES comes first, the peptide text is derived from it. [ ]: non-standard residue; d: D form. The star is where a group is joined. Leuψ(CH2NH)ValIleHisOH = CC[C@H](C)[C@H](NC(=O)[C@@H](NC[C@H](CC(C)C)N*)C(C)C)C(=O)N[C@@H](Cc1c[nH]cn1)C(=O)O; X3 = CC[C@H](C)[C@H](NC(=O)[C@@H](NC[C@H](CC(C)C)N*)C(C)C)C(=O)N[C@@H](Cc1ccc(O)cc1)C(=O)O; X2 = CC(C)C[C@@H](CN[C@H](C(=O)N[C@@H](Cc1c[nH]cn1)C(=O)NCCCN)C(C)C)N*; X1 = CC(C)C[C@H](N[*:1])[C@@H](O)C[C@H](C(=O)[*:2])C(C)C; Boc = CC(C)(C)OC(=O)*
Biological target: T1, human renin (Homo sapiens, UniProt P00797)
T1 construct: angiotensin-I released from human renin substrate by human resin in human plasma; from tissue; host or cells: human plasma (containing EDTA)
T1 sequence (P00797 67-406): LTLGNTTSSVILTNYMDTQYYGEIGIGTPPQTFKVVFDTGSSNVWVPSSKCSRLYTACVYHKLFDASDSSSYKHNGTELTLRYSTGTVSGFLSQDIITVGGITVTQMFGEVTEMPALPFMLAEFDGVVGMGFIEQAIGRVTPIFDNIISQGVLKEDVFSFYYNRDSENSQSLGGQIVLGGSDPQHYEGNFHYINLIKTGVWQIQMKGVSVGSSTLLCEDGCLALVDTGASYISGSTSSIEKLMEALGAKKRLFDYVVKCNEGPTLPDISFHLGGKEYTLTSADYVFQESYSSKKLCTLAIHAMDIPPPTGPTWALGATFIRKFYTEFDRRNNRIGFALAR
Assay: human renin-renin substrate reaction in vitro; radioimmunoassay of angiotensin-I released in human plasma
Format: biochemical
Conditions: Table 2; read-out: IC50 μM v/s human renin
Description: Preliminary activity test results in the human […] substrate reaction in vitro are given, with comparative figures for the tetrapeptide analogue (III). […] The test results given herein are based on the methods described by J. A. Miller et al in Clinica Chimica Acta (1980) 101 5-15 and K. Poulsen and J. Jorgensen in J. Clin. Endocrinol. Metab. (1974) 39 816, and is based on the measurement, by radioimmunoassay, of angiotensin-I released from human renin substrate by human resin in human plasma. The inhibitor is dissolved in 0.01N HCl (10 μl) and added to hmman plasma (75 μl) containing EDTA, and angiotensin-I antibody (15 μl) in 3M-Tris/HCl buffer (pH 6.9). After incubation at 37° C. for 0-120 minutes, the enzymic reaction is quenched by the addition of ice-cold 0.25M Tris/HCl buffer (pH 7.4) containing 0.01% of bovine serum albumin. 125I-labelled angiotensin-I is added, followed by equilibration at 4° C. for 48 hours. Free and bound ligand are separated by the addition of dextrancoated charcoal, and the amount of bound radio-ligand determined in a gamma counter.

Row | IC50 [µM] | Compound
1 | 0.018 | CC[C@H](C)[C@H](NC(=O)[C@@H](C[C@H](O)[C@H](CC(C)C)NC(=O)[C@H](Cc1c[nH]cn1)NC(=O)[C@H](Cc1ccccc1)NC(=O)OC(C)(C)C)C(C)C)C(=O)N[C@@H](Cc1ccccc1)C(=O)OC [XLIX] (Boc-FH[X1]IF-OMe)
2 | 0.007 | CC[C@H](C)[C@H](NC(=O)[C@@H](C[C@H](O)[C@H](CC(C)C)NC(=O)[C@H](Cc1c[nH]cn1)NC(=O)[C@H](Cc1ccccc1)NC(=O)OC(C)(C)C)C(C)C)C(=O)N[C@@H](Cc1c[nH]cn1)C(=O)O [Example XLVI] (Boc-FH[X1]IH-OH)
3 | 11 | CC[C@H](C)[C@H](NC(=O)[C@@H](C[C@H](O)[C@@H](N)CC(C)C)C(C)C)C(=O)N[C@@H](Cc1c[nH]cn1)C(=O)N[C@@H](CCCCN)C(=O)O [Example XLI]

Same assay, conditions: Table 5; human renin-renin substrate reaction in vitro; read-out: IC50

Row | pIC50 | Compound
4 | 6.70 | CC[C@H](C)[C@H](NC(=O)[C@@H](NC[C@H](CC(C)C)NC(=O)[C@H](Cc1c[nH]cn1)NC(=O)[C@H](Cc1ccccc1)NC(=O)[C@@H]1CCCN1C(=O)[C@@H](N)Cc1c[nH]cn1)C(C)C)C(=O)N[C@@H](Cc1ccc(O)cc1)C(=O)O [Example X]
5 | 5.82 | CC(C)C[C@@H](CN[C@H](C(=O)N[C@H](C(=O)N[C@@H](Cc1ccc(O)cc1)C(=O)O)C(C)C)C(C)C)NC(=O)[C@H](Cc1c[nH]cn1)NC(=O)[C@H](Cc1ccccc1)NC(=O)[C@@H]1CCCN1C(=O)[C@@H](N)Cc1c[nH]cn1 [Example XII]
6 | 6.59 | CC[C@H](C)[C@H](NC(=O)[C@@H](NC[C@H](CC(C)C)NC(=O)[C@H](Cc1c[nH]cn1)NC(=O)[C@H](Cc1ccccc1)NC(=O)[C@@H]1CCCN1C(=O)[C@@H](N)Cc1c[nH]cn1)C(C)C)C(=O)N[C@@H](Cc1c[nH]cn1)C(=O)O [Example V, H-His-Pro-Phe-His-Leu-reduced-Val-Ile-His-OH] (H-HPFH-{Leuψ(CH2NH)ValIleHisOH})
7 | 5.60 | CC(C)C[C@@H](CN[C@@H](Cc1ccccc1)C(=O)N[C@H](C(=O)N[C@@H](Cc1ccc(O)cc1)C(=O)O)C(C)C)NC(=O)[C@H](Cc1c[nH]cn1)NC(=O)[C@H](Cc1ccccc1)NC(=O)[C@@H]1CCCN1C(=O)[C@@H](N)Cc1c[nH]cn1 [Example IX]

Same assay, conditions: Table I; human renin in human plasma; read-out: IC50, μM human

Row | IC50 [µM] | Compound
8 | 0.048 | CC[C@H](C)[C@H](NC(=O)[C@@H](NC[C@H](CC(C)C)NC(=O)[C@H](Cc1c[nH]cn1)NC(=O)[C@H](Cc1ccccc1)NC(=O)[C@@H]1CCCN1C(=O)[C@H](Cc1c[nH]cn1)NC(=O)[C@@H]1CCCN1)C(C)C)C(=O)N[C@@H](Cc1ccc(O)cc1)C(=O)O [XXX] (H-PHPFH-X3)
9 | 0.2 | CC[C@H](C)[C@H](NC(=O)[C@@H](NC[C@H](CC(C)C)NC(=O)[C@H](Cc1c[nH]cn1)NC(=O)[C@H](Cc1ccccc1)NC(=O)[C@@H]1CCCN1C(=O)[C@H](N)Cc1c[nH]cn1)C(C)C)C(=O)N[C@@H](Cc1c[nH]cn1)C(=O)N[C@H](CCCCN)C(=O)O [XXXIX]
10 | 4.5 | CC(C)C[C@@H](CN[C@H](C(=O)N[C@@H](Cc1c[nH]cn1)C(=O)NCCCN)C(C)C)NC(=O)[C@H](Cc1c[nH]cn1)NC(=O)[C@H](Cc1ccccc1)NC(=O)[C@@H]1CCCN1C(=O)[C@H](Cc1c[nH]cn1)NC(=O)[C@@H]1CCCN1 [XVII] (H-PHPFH-X2)
11 | 0.05 | CC[C@H](C)[C@H](NC(=O)[C@@H](NC[C@H](CC(C)C)NC(=O)[C@H](Cc1c[nH]cn1)NC(=O)[C@H](Cc1ccccc1)NC(=O)[C@@H]1CCCN1C(=O)[C@@H](N)Cc1c[nH]cn1)C(C)C)C(=O)N[C@@H](Cc1c[nH]cn1)C(=O)N[C@H](CCCCN)C(=O)O [XXI]
12 | 0.6 | CC[C@H](C)[C@H](NC(=O)[C@@H](NC[C@H](CC(C)C)NC(=O)[C@H](Cc1c[nH]cn1)NC(=O)[C@H](Cc1ccccc1)NC(=O)[C@@H]1CCCN1C(C)=O)C(C)C)C(=O)N[C@@H](Cc1c[nH]cn1)C(=O)N[C@H](CCCCN)C(=O)O [XXXVII]
13 | 0.55 | CC[C@H](C)[C@H](NC(=O)[C@@H](NC[C@H](CC(C)C)NC(=O)[C@H](Cc1c[nH]cn1)NC(=O)[C@H](Cc1ccccc1)NC(=O)[C@@H]1CCCN1C(=O)[C@@H](N)CCCNC(=N)N)C(C)C)C(=O)N[C@@H](Cc1ccc(O)cc1)C(=O)O [XXIV]

Source: patent publication US4713445A, “Renin inhibitors and treatments using them” (priority 1983, dated 1987)
